According to patent US12053533B2, “Fluorescent probe for cyclooxygenase-2” (The Board of Trustees of the University of Illinois, priority 2020, dated 2024):

Key:
COX-2 [1] = target: T1, COX-2 (Homo sapiens, UniProt P35354); conditions: comparison values for other COX-2 substrates; cited from earlier work
T1 sequence (P35354 18-604): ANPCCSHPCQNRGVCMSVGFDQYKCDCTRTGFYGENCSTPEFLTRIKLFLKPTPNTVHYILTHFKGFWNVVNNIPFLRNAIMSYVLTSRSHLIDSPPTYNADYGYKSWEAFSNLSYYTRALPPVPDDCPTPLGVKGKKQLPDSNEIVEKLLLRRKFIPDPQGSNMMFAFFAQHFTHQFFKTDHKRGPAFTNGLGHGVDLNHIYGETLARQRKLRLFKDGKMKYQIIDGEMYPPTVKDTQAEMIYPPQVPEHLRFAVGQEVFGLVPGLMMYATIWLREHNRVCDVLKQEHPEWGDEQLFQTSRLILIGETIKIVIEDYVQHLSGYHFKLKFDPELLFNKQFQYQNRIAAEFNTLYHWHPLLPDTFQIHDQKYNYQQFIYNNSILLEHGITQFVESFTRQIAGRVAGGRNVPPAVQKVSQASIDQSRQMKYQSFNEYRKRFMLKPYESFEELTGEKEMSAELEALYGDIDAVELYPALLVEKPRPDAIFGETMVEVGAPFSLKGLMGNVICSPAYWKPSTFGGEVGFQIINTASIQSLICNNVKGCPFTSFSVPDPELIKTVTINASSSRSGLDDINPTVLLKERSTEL

COX-2 [2] = target: T1, COX-2; assay: COX-2 fluorescence assay with CoxFluor (fluorimeter / plate reader); format: biochemical; design: made in house; conditions: COX-2 250 nM, 4 h
Method: Fluorimeter Fluorescence Assay. The fluorescence assays were performed in microquartz cuvettes or submicroquartz cuvettes with a maximum volume of 600 μL. Reactions were monitored at room temperature using 540 nm excitation and emission was collected from 550-700 nm with a slit width of 1.25 mm. Total volumes of the reaction mixtures were maintained at 570 μL. […] Experiments in the presence of reduced GSH were conducted according to the same procedure, but GSH (30 μL, 19 mM in 100 mM Tris-HCl, pH 8.0) was added before the addition of CoxFluor for a final concentration of 1 mM. Assays performed in submicroquartz cuvettes were performed maintaining the same ratios, but with a final volume of 142.5 μL.
Plate Reader Fluorescence Assay. The fluorescence assays were performed at room temperature using 540 nm excitation and 590 nm emission. Total volume of the reaction mixture was maintained at 190 μL. […] Inhibition assays were performed according to the same procedure, but COX-2 was preincubated with hemin and inhibitor for 0.5 h at 0° C. before initiation with CoxFluor. Relative fluorescence enhancement is calculated by comparing to a buffer control with 10 μM CoxFluor.

[3] = ethanol; cited from earlier work
[4] = test system: COX-2 activity in HEK 293T cells over-expressing human COX-2; assay: Confocal live-cell imaging of human COX-2 transfected HEK 293T cells; format: cell-based; conditions: indomethacin 10 μM, CoxFluor 10 μM, 3 h
Method: Prior to plating onto 4-well chambered cover glasses, the surface exposed substrate was coated with R&D Systems™ Cultrex Poly-L-Lysine (Fisher Scientific) according to the manufacturers protocol (allowed to dry>3 h). […] Transfections was performed using Lipofectamine 3000 (Thermo Fisher Scientific) according to the manufacturer's protocol. […] Media was removed from each well and replaced with 500 μL Opti-MEM™ Reduced Serum Media followed by the addition of 20 μL transfection master mix.
Transfections were performed using the Lipofectamine 3000 reagent according to the aforementioned protocol. Control wells were treated the same as the transfected wells without the addition of the transfection master mix. […] Each well was imaged using a Zeiss LSM 700 confocal microscope (n=3 technical replicates; n=4 biological replicates). For GSH knockdown experiments, the initial media change was performed with 1 mM NEM (0.1% DMSO final concentration) in serum-free DMEM media and the cells were allowed to incubate for 30 minutes before proceeding to the staining with CoxFluor. […] All images were processed using identical parameters and false colored (LUT: jet.lut) in ImageJ.

[5] = CoxFluor, Ctrl-CoxFluor & Resorufin stability assays; format: physicochemical; conditions: 8 hours at room temperature or 37° C., with or without ambient light
Method: CoxFluor, Ctrl-CoxFluor & Resorufin Stability Assays. Stability assays were performed for a 10 μM solution of each compound in a series of buffers/solvents (100 mM Tris-HCl at pH 8.0, DMEM with 10% FBS, DMEM without serum and DMSO). Stability was assessed at room temperature or at 37° C. and in the presence or absence of ambient light. Fluorescence was measured using the plate reader with excitation at 540 nm and emission from 560-700 nm and the relative turn-on was determined by the change of fluorescence intensity at 590 nm.

[6] = Photophysical characterization; format: physicochemical
Method: Photophysical Characterization. Extinction coefficients and fluorescence quantum yields were acquired (n=3) and reported as the average with a relative standard deviation less than 15%. Extinction coefficients were acquired by titrating compound in 100 mM Tris-HCl (pH 8.0) within the linear range. Fluorescence quantum yields were obtained using the modified method for relative fluorescence quantum yield. Dye was titrated into the solution and the absorbance and emission were monitored (excitation at 540 nm). The absorbance was maintained below 0.1 to limit secondary absorbance events. Total emission spectra were integrated, and the relative quantum yield was calculated relative to Rhodamine B (ϕ=0.70, ethanol). The refractive index of 100 mM Tris-HCl (pH 8.0) was measured to be 1.33514.

[7] = substrate: CCCCC/C=C\C/C=C\C/C=C\C/C=C\CCCC(=O)N1c2ccc(O)cc2Oc2cc(O)ccc21; assay: COX-2 fluorescence assay with CoxFluor (fluorimeter / plate reader); format: biochemical, human; conditions: other: steady state; COX-2 50 nM, hemin 200 nM; pH 8.0

Molecule: CCCCC/C=C\C/C=C\C/C=C\C/C=C\CCCC(=O)O [AA, arachidonic acid]
- Km (COX-2 [1]): 6 µM

Molecule: CCCCCCCCCCCCCCCCCCCC(=O)N1c2ccc(O)cc2Oc2cc(O)ccc21 [Ctrl-CoxFluor]
- reactivity with COX-2 under the same reaction conditions (COX-2 [2]; hemin 1 μM): unreactive

Molecule: CCN1C(=O)C=CC1=O [NEM, N-ethylmaleimide, reference compound]
- effect on COX activity (COX-2 [2]; varying N-ethylmaleimide concentrations, CoxFluor 10 μM): does not affect COX activity

Molecule: CCN(CC)c1ccc2c(-c3ccccc3C(=O)O)c3ccc(=[N+](CC)CC)cc-3oc2c1.[Cl-] [Rhodamine B]
- quantum yield ϕ of reference standard [3]: 0.70

Molecule: CCCCC/C=C\C/C=C\C/C=C\C/C=C\CCCC(=O)NCCO [arachidonyl ethanolamide]
- Km (COX-2 [1]): 24 µM

Molecule: COc1ccc2c(c1)c(CC(=O)O)c(C)n2C(=O)c1ccc(Cl)cc1 [indomethacin, reference compound]
- fluorescence enhancement of transfected cells upon treatment with inhibitor [4]: no fluorescence enhancement was observed

Molecule: O=c1ccc2nc3ccc(O)cc3oc-2c1 [resorufin, reference compound]
- stability in Tris-HCl and DMEM buffer systems [5]: stable
- extinction coefficient ε at 573 nm ([6]; 100 mM Tris-HCl pH 8.0): 73,000 M^−1cm^−1
- fluorescence quantum yield ΦF ([6]; 100 mM Tris-HCl pH 8.0, relative to Rhodamine B): 0.55

B1: recombinant human COX-2 (Homo sapiens) (protein)
chain: T1 sequence (P35354 18-604)
notes: made in house
- Km [7]: 22 µM
- kcat [7]: 0.317 s⁻¹
